Drawing on PMC11091976, “Shorter Peptide Nucleic Acid Probes Improve Affibody-Mediated Peptide Nucleic Acid-Based Pretargeting” (ACS Pharmacology & Translational Science, 2024), this text covers Tm for one substance.

This data set relates to HP15. Kind of data set: UV melting of PNA:PNA duplex with primary probe HP15. Conditions: UV 260 nm, 20-95 °C at 1 °C/min, 5 μM each probe, 10 mM phosphate buffer, 10 mM KCl, pH 7.4. It is filed as physicochemical. The procedure: The melting temperatures of secondary probes after duplex formation with primary probes were also measured by monitoring the absorbance at 260 nm as a function of temperature (see Figure S23). All probe pairs had melting temperatures well above 37 °C (body temperature) and ranged from 51 °C for the HP6:HP19 pair with 6 complementary bases to 82 °C for the previously studied HP15:HP18 pair with 15 complementary bases (see Figure 3B and Table 2). […] This secondary structure is typically adopted by antiparallel and L-amino acid-modified PNA–PNA duplexes at neutral pH.[49]
Figure S23: Normalized temperature melting profiles from 20–95°C for different primary and secondary probe pairs. UV melting curves at 260 nm. (A) HP15 (15-mer) toward secondary 15-, 12- and 9-mers. (B) HP12 (12-mer) toward secondary 12-, 9-, 8-, 7- and 6-mers. (C) HP9 (9-mer) toward secondary 9-, 8-, 7- and 6-mers. (D) HP6 (6-mer) toward secondary 6-mer.
Concentrations of duplexes in A–D are 5 μM in 10 mM […] with 10 mM KCl at pH 7.4.
(also on this page, place not known: Fraction melted Fraction meltedFraction melted Fraction melted) […]
Supplementary Material and methods […]
Biophysical characterization of PNA:PNA duplexes using CD Spectroscopy and […]
Circular dichroism (CD) and UV melts of PNA:PNA duplexes were measured on a CD spectrometer (Applied Photophysics, Leatherhead, UK) with Peltier temperature control and an external temperature probe. […]
from 20°C to 95°C with a 1°C/min temperature gradient. Simultaneously, the UV absorbance at 260 nm was recorded as a function of temperature. Fraction melted data was calculated […]
Fraction melted = 1 ― UVds― UVss , where UVss and UVds are the UV absorbances at 95°C and 20°C, respectively. The melting temperature (Tm) was determined as the maximum of the first derivative of the melting curve and was computed using the Global 3 analysis software (Applied Photophysics, […]
CD spectra in the range of 200–300 nm were recorded for all hybridized PNA:PNA pairs at 20°C before and after the UV melting experiments. […]

Broadly, the Tm is the temperature at the midpoint of the melting transition. Turning to “DOTA-AEEA-SS-aacaccagg-EEY-NH2 [HP16, 9-mer secondary PNA probe with DOTA]”, the Tm was 73 °C.
